According to ChEMBL document CHEMBL2331167, “Inhibitory effect of novel somatostatin peptide analogues on human cancer cell growth based on the selective inhibition of DNA polymerase β” (Bioorg Med Chem, 2013):
pIC50: −log10 of the molar value. Calls of active or inactive are those of the source. The calls are words filed in the database; no cut-off is given here.

Experiments:
[1] = biological target: DNA-directed DNA/RNA polymerase mu (Homo sapiens, UniProt Q9NP87); test: Inhibition of human DNA polymerase mu using poly(dA)/oligo(dT)18 (A/T, 2/1)/dTTP DNA template-primer substrate measured at 37 degC for 60 mins
DNA-directed DNA/RNA polymerase mu, sequence (Q9NP87 whole entry): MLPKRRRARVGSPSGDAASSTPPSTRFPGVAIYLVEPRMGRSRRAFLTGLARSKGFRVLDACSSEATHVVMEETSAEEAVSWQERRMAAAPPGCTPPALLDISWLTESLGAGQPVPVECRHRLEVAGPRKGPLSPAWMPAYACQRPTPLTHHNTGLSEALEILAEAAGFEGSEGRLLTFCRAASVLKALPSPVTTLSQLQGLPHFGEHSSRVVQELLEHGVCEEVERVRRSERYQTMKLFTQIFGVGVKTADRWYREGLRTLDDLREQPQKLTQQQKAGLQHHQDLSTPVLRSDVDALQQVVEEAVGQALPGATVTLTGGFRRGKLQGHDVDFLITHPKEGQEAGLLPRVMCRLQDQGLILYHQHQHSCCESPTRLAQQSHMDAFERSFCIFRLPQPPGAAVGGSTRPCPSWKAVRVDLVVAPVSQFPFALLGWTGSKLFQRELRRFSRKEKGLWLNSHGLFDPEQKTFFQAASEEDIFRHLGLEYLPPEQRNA

DNA polymerase beta = DNA polymerase beta (Rattus norvegicus, UniProt P06766); test: Inhibition of rat DNA polymerase beta using poly(dA)/oligo(dT)18 (A/T, 2/1)/dTTP DNA template-primer substrate measured at 37 degC for 60 mins
HCT-116 [2] = test: Induction of apoptosis in p53 +/+ human HCT116 cells assessed as apoptotic cells at 13.2 uM incubated for 24 hrs by TUNEL analysis relative to p53 -/- human HCT116 cells; type: functional
HCT-116 [3] = test: Cytotoxicity against p53 -/- human HCT116 cells assessed as growth inhibition at 200 uM incubated for 24 hrs by WST-1 assay; type: functional, cell-based
[4] = biological target: T1, DNA polymerase subunit gamma-1 (Homo sapiens, UniProt P54098); test: Inhibition of human DNA polymerase gamma using poly(dA)/oligo(dT)18 (A/T, 2/1)/dTTP DNA template-primer substrate measured at 37 degC for 60 mins
T1 sequence (P54098 whole entry): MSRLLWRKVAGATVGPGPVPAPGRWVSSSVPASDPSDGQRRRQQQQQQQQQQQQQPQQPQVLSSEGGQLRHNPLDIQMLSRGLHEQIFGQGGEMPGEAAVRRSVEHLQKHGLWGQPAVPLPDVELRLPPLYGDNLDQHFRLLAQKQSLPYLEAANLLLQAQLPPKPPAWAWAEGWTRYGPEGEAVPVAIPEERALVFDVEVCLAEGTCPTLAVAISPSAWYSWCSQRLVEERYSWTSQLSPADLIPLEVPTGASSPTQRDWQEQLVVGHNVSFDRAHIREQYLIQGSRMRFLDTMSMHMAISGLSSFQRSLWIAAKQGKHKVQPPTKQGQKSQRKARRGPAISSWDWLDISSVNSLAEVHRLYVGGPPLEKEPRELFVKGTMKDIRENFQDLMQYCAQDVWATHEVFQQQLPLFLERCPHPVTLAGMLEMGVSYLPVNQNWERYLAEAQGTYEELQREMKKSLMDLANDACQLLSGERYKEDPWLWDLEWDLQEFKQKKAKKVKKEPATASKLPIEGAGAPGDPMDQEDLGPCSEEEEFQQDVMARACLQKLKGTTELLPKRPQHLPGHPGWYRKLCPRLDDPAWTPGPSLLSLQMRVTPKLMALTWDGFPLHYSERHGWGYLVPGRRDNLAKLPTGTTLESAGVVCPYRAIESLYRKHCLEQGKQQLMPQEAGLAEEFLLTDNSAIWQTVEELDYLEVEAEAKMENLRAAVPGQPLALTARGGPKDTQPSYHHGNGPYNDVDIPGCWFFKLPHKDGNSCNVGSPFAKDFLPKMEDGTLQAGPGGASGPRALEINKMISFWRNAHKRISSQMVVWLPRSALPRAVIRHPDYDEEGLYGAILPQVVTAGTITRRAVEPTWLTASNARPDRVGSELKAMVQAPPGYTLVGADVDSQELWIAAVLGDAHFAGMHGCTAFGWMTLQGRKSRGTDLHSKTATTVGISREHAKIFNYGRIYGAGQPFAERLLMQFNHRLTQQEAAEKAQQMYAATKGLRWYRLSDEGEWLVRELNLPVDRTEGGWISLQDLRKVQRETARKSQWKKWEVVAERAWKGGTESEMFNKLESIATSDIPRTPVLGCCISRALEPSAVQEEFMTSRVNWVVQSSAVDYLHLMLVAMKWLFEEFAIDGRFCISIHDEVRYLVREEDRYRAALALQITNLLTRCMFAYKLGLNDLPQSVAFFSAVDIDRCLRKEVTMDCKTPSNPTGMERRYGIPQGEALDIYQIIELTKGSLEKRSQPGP

HCT-116 [5] = test: Cytotoxicity against p53 +/+ human HCT116 cells assessed as growth inhibition incubated for 24 hrs by WST-1 assay; type: functional; conditions: HCT-116, 24 h, read-out: LD50 (the source's name)
DNA polymerase iota = biological target: T2, DNA polymerase iota (Homo sapiens, UniProt Q9UNA4); test: Inhibition of human DNA polymerase iota using poly(dA)/oligo(dT)18 (A/T, 2/1)/dTTP DNA template-primer substrate measured at 37 degC for 60 mins
T2 sequence (Q9UNA4 whole entry): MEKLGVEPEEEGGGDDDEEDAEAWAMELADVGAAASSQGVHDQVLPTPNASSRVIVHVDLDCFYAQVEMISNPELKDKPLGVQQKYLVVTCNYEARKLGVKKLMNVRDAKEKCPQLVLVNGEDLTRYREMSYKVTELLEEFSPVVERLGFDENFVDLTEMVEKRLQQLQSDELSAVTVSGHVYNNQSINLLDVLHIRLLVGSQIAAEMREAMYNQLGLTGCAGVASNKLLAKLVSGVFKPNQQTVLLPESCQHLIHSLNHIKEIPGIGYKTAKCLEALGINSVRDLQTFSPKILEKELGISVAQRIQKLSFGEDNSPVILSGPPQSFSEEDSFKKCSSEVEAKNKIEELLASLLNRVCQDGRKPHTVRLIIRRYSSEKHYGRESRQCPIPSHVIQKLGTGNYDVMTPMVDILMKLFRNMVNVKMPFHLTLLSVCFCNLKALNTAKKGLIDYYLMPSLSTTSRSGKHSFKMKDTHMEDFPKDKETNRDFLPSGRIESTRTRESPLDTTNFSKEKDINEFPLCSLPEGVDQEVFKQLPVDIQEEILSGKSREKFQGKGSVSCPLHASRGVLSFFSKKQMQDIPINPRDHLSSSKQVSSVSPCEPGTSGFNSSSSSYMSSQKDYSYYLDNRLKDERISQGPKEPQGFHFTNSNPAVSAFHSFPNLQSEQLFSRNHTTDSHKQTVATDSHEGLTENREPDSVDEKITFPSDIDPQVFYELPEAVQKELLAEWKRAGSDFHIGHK

HCT-116 [6] = test: Induction of apoptosis in p53 -/- human HCT116 cells assessed as DNA fragmentation at 13.7 uM incubated for 24 hrs by agarose gel electrophoresis; type: functional, cell-based
[7] = Inhibition of human DNA polymerase epsilon using poly(dA)/oligo(dT)18 (A/T, 2/1)/dTTP DNA template-primer substrate measured at 37 degC for 60 mins
HCT-116 [8] = test: Induction of apoptosis in p53 -/- human HCT116 cells assessed as apoptotic cells at 13.7 uM incubated for 24 hrs by TUNEL analysis; type: functional, cell-based
[9] = biological target: DNA nucleotidylexotransferase (Bos taurus, UniProt P06526); test: Inhibition of calf TdT polymerase measured at 37 degC for 60 mins
DNA nucleotidylexotransferase, sequence (P06526 whole entry, the tested form may be a part): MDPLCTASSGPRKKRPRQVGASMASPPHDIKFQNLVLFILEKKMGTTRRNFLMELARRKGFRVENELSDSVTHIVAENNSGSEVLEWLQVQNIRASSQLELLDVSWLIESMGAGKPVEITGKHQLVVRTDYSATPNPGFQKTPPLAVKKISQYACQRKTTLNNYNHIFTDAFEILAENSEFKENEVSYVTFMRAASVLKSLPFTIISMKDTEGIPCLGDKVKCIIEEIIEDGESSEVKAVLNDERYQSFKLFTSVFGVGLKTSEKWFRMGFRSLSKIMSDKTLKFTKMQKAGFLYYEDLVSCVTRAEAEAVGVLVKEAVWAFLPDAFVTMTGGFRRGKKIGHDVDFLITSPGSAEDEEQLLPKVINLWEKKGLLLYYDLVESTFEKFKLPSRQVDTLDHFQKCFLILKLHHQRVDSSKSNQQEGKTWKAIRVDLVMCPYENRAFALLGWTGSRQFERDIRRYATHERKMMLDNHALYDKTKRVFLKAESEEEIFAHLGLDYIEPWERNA

HCT-116 [10] = test: Induction of apoptosis in p53 +/+ human HCT116 cells assessed as DNA fragmentation at 13.2 uM incubated for 24 hrs by agarose gel electrophoresis; type: functional, cell-based
HCT-116 [11] = test: Cytotoxicity against p53 -/- human HCT116 cells assessed as growth inhibition incubated for 24 hrs by WST-1 assay; type: functional; conditions: HCT-116, 24 h, read-out: LD50 (the source's name)
HCT-116 [12] = test: Cytotoxicity against MMS-induced p53 +/+ human HCT116 cells assessed as reduction in clonogenic survival at 13.2 uM incubated for 24 hrs by WST-1 assay relative to control; type: functional

CC[C@H](C)[C@H](NC(=O)[C@H](Cc1ccc(O)cc1)NC(=O)OC(C)(C)C)C(=O)Nc1cccc2ccccc12
pIC50 [1]: < 3.70 | pIC50 (DNA polymerase beta): 4.94 | fold change (FC) (HCT-116 [2]): 3 | growth inhibition (GI) (HCT-116 [3]): Active | pIC50 [4]: < 3.70 | CC50 (HCT-116 [5]): 13.2 µM | pIC50 (DNA polymerase iota): < 3.70 | Activity (HCT-116 [6]): Active | pIC50 [7]: < 3.70 | Activity (HCT-116 [8]): Active | pIC50 [9]: < 3.70 | Activity (HCT-116 [10]): Active | CC50 (HCT-116 [11]): 13.7 µM | fold change (FC) (HCT-116 [12]): 2
